Laboratory results from patent US9393317B2, “Peptide-conjugated oligonucleotide therapeutic and method of making and using same” (Sloan-Kettering Institute for Cancer Research, priority 2008, dated 2016).
{C6NH2} = C6-amino linker; d = 2'-deoxy (DNA); m = 2'-O-methyl

Legend:
[1] = system: endothelial cells (HUVECs and the murine endothelioma cell line EOMA); test: Uptake of fluorescence labeled Id1-PCAO by endothelial cells, confocal fluorescence microscopy; assay type: cell-based; details: 200 nM, no lipid or other carrier
Protocol: In order to determine if the Id1 PCAO retained the homing specificity of the F3 peptide and could be taken up by cells in the absence of lipid or other specialized carrier, fluorescence labeled Id1-PCAOs were supplied to different cell lines at a concentration of 200 nM. […] Fluorescein and tetra methyl-rhodamine red labeled PCAOs were also tested to control for the effects of the fluorophore and similar results were obtained. To rule out effects from the fixation process we performed epifluorescence live imaging on viable HUVECs and HeLa cells and similar results were observed.
HUVEC were seeded 24 h prior to transfection at 10^5 cells/well in six-well MWDs in standard growth media (EGM-2) without antibiotics. At the day of transfection the AO-conjugates and control oligos were diluted in EGM-2 to the indicated concentration. Media was replaced with the supplemented EGM-2. The procedure was repeated every 24 h for two more days, samples were drawn at the indicated time points and analyzed via western blot. Other cell lines were treated similarly, with the exception that Id1-PCAO was added to standard growth media, DME or RPMI 1640 in accordance to cell type. Uptake studies in different cell lines with fluorescence labeled Id1-PCAO were performed in both the standard growth media (DME, RPMI 1640 or EGM-2) or in OptiMEM I (supplemented with 2% FBS) to control for media effects.

Id1 = test: Down-regulation of Id1 in tumor endothelium of MMTV-HER2/neu (YD) breast carcinoma, IHC; assay type: in vivo, mouse
Protocol: Homing studies were also performed in animals bearing spontaneous tumors in MMTV-HER2/neu (YD) and PTEN+/− backgrounds. […] To test if the PCAOs down-regulate Id1 protein levels in vivo, tumor bearing transgenic MMTV-HER2/neu (YD) Id1+/− mice were injected intravenously with Id1-PCAOs. Since repeated application of the drug was necessary to yield significant down-regulation in vitro, the animals were treated with […] of Id1-PCAO or Id1-AO for three consecutive days. Over 80% of tumor vessels in animals treated with Id1-PCAO were completely negative for Id1 expression by IHC.
YD neu transgenic animals bearing breast carcinoma were treated for 3 subsequent days with 25 nmol of either Id1-ASO or F3-Id1-ASO conjugate in PBS by i.v. injection. 24 h after the last injection animals were sacrificed, the tumor removed, fixed in paraformaldehyde and embedded in parafine. IHC staining was performed for Id1 (antibody C-20, SantaCruz Biotechnology, Santa Cruz, Calif.) on sections.

HUVEC = test: Wound healing (scratch) assay; assay type: cell-based, human; details: 200 nM, 72 h treatment, 22 h after scratch
Protocol: HUVEC (4th passage) were seeded 100,000 cells into the wells of a fibronectin coated two-well chamber slides (BD Bioscience). Medium was exchanged after 18 h with standard medium containing either F3-ASO conjugates or ASO at a concentration of 200 nM. The treatment was repeated every 24 h for two more days. 72 h after starting the treatment a scratch was applied with a micropipette-tip. Media was removed the cell-layer once washed with PBS and media containing the F3-conjugate or the control ASO was added. The chamber slides were incubated at 37° C. with 5% CO2 for 22 h. The cells were washed with PBS, fixed with 4% paraformaldehyde in PBS for 20 min at r.t., and washed twice with PBS. The slides were mounted and images were taken under a light microscope to access the grade of closure of the applied scratch.
HUVEC were plated in fibronectin coated two-well chamber slides (BD Bioscience) at 2.5×10^4 cells/well. Growth media was supplemented with 200 nM Id1-PCAO (or Id1-AO) and renewed every 24 h. 72 h after plating a scratch was applied using a 20 μl pipette tip. Chambers were washed with media and supplemented media was added. 18 h after the scratch was applied, cells were fixed and imaged.

**Q.** Which “uptake / internalization into endothelial cells” value [1] does the source give for “GCACCagctccttgaggcGUGAG (antisense GCACCAGCTCCTTGAGGCGUGAG; sugars from the 5' end m5 d13 m5, 5' {C6NH2}, backbone and methylation of C not given here; DNA gap phosphorothioate linked, F3 peptide conjugate form, further chemistry not fully specified) [Id1-AO, ID No. 2]” here?
**A.** no internalization was observed

**Q.** And the “down-regulation of Id1 in tumor vessels” value (Id1; MMTV-HER2/neu (YD) Id1+/− mice, 15 nmol/d i.v., three consecutive days)?
**A.** no detectable down-regulation of Id1

**Q.** And the “Id1 expression in tumor endothelium, IHC” value (Id1; YD neu transgenic animals, 25 nmol i.v., 3 subsequent days, 24 h after last injection)?
**A.** no effect

**Q.** And the “closure of the applied scratch” value (HUVEC)?
**A.** closed completely
